Results: publication PMC10712727, “Safety, Tolerability, and Pharmacokinetics of Senaparib, a Novel PARP1/2 Inhibitor, in Chinese Patients With Advanced Solid Tumors: A Phase I Trial” (The Oncologist, 2023)

Test system: patients with advanced solid tumors
Experiment: Safety: treatment-emergent and senaparib-related adverse events graded per NCI CTCAE v4.03
Format: in vivo
Experimental: This phase I, open-label, multicenter, dose-escalation, and dose-expansion study was conducted at three national clinical institutions in China. […] At baseline, all patients enrolled in the dose-escalation phase had to have at least one evaluable lesion, and those in the dose-expansion period had to have at least one measurable lesion, according to Response Evaluation Criteria in Solid Tumors version 1.1 (RECIST v1.1).[16] Entry to the dose-expansion cohort required the presence of a BRCA mutation, with the exception of patients with ovarian carcinoma, fallopian tube carcinoma, and primary peritoneal carcinoma. Full study eligibility criteria are provided in Supplementary Table S1.
Dose escalation was conducted using a modified Fibonacci 3 + 3 method (Supplementary Fig. S1).[17] Patients were administered oral senaparib from a planned starting dose of 2 mg once daily (QD), with preliminary dose escalation to 120 mg via nine dose groups, in order of their entry into the study. At a given dose level, each patient received a single dose of senaparib followed by a 7-day washout period. They then entered a continuous dosing period to confirm the safety and PK profile, in which they received senaparib QD from day 1 to day 21 of each 3-week cycle. Progression to the next higher dose required approval from the Data Safety Monitoring Committee (DSMC) upon review of the safety and PK data of the previous dose. A 50-mg twice-daily (BID) dosing group was added (planned enrollment, n = 6 patients) based on a DSMC review of the safety, PK, and efficacy analysis of the completed QD dose groups in the phase I clinical trial of senaparib dose escalation in Australia (NCT03507543), which commenced prior to the start of this trial.
The dose-expansion period included 3 populations: dose groups in which at least one patient achieved complete response (CR) or partial response (PR) per RECIST v1.1[16] and 1 dose group higher (evaluated for safety), as well as the dose group at the maximum tolerated dose (MTD)/recommended phase II dose (RP2D). Each of these groups included those patients in the respective dose-escalation group plus a planned additional 10 patients (approximately 20 patients in the MTD/RP2D group) with BRCA^mut+ solid tumors (ovarian, breast, or prostate cancer were preferred, and ovarian cancer could be BRCA wild type). Patients received senaparib monotherapy orally QD or BID (50-mg dose only) over each 3-week cycle until disease progression or unacceptable toxicity.
DLTs were predefined toxicities (Supplementary Table S2) recorded over the 7 days following the single-dose administration of senaparib and during the first treatment cycle (day 1-day 21) for each dose group in the dose-escalation period only. The MTD was defined as the maximum dose at which ≤1/6 patients experienced a DLT. Senaparib PK parameters were derived from blood samples collected from patients after the single administration, and at regular intervals during the first cycle of the dose-escalation and dose-expansion periods. Plasma concentrations of senaparib were determined using high-performance liquid chromatography-tandem mass spectrometry. Tumor response was assessed every 6 weeks per RECIST v1.1,[16] recording objective response rate (ORR), disease control rate (DCR), duration of response (DOR), and progression-free survival (PFS) by dose level for all patients and for those harboring BRCA^mut+ tumors.

O=C(c1cc(Cn2c(=O)[nH]c(=O)c3c(F)cccc32)ccc1F)N1CCN(c2ncccn2)CC1 [Senaparib]
TEAE Grade ≥3, events (20 mg QD n = 5): 3 n ev | TEAE Grade ≥3, patients (20 mg QD n = 5): 2 (40.0) n (%) | TEAEs leading to death, events (20 mg QD n = 5): 1 n ev | TEAEs leading to death, patients (20 mg QD n = 5): 1 (20.0) n (%) | TEAEs leading to dose discontinuation, events (20 mg QD n = 5): 2 n ev | TEAEs leading to dose discontinuation, patients (20 mg QD n = 5): 2 (40.0) n (%) | TEAEs leading to dose interruption, events (20 mg QD n = 5): 1 n ev | TEAEs leading to dose interruption, patients (20 mg QD n = 5): 1 (20.0) n (%) | TEAEs leading to dose reduction, events (20 mg QD n = 5): 0 n ev | TEAEs leading to dose reduction, patients (20 mg QD n = 5): 0 n (%) | TRAEs Grade ≥3, events (20 mg QD n = 5): 1 n ev | TRAEs Grade ≥3, patients (20 mg QD n = 5): 1 (20.0) n (%) | TRAEs, events (20 mg QD n = 5): 15 n ev | TRAEs, patients (20 mg QD n = 5): 3 (60.0) n (%) | Vomiting TRAE, All (20 mg QD n = 5): 0 n (%) | Vomiting TRAE, Gr≥3 (20 mg QD n = 5): 0 n (%) | WBC decreased TRAE, All (20 mg QD n = 5): 1 (20.0) n (%) | WBC decreased TRAE, Gr≥3 (20 mg QD n = 5): 0 n (%) | ALT increased TRAE, All (40 mg QD n = 3): 0 n (%) | ALT increased TRAE, Gr≥3 (40 mg QD n = 3): 0 n (%) | AST increased TRAE, All (40 mg QD n = 3): 0 n (%) | AST increased TRAE, Gr≥3 (40 mg QD n = 3): 0 n (%) | Anemia TRAE, All (40 mg QD n = 3): 1 (33.3) n (%) | Anemia TRAE, Gr≥3 (40 mg QD n = 3): 0 n (%) | Any TEAE, All (40 mg QD n = 3): 3 (100) n (%) | Any TEAE, Gr≥3 (40 mg QD n = 3): 0 n (%) | Any TEAE, events (40 mg QD n = 3): 7 n ev | Any TEAE, patients (40 mg QD n = 3): 3 (100) n (%) | Any TRAE, All (40 mg QD n = 3): 3 (100) n (%) | Any TRAE, Gr≥3 (40 mg QD n = 3): 0 n (%) | Appetite decreased TRAE, All (40 mg QD n = 3): 0 n (%) | Appetite decreased TRAE, Gr≥3 (40 mg QD n = 3): 0 n (%) | Asthenia TRAE, All (40 mg QD n = 3): 1 (33.3) n (%) | Asthenia TRAE, Gr≥3 (40 mg QD n = 3): 0 n (%) | Blood bilirubin increased TRAE, All (40 mg QD n = 3): 0 n (%) | Blood bilirubin increased TRAE, Gr≥3 (40 mg QD n = 3): 0 n (%) | Blood creatinine increased TRAE, All (40 mg QD n = 3): 1 (33.3) n (%) | Blood creatinine increased TRAE, Gr≥3 (40 mg QD n = 3): 0 n (%) | Hypokalemia TRAE, All (40 mg QD n = 3): 0 n (%) | Hypokalemia TRAE, Gr≥3 (40 mg QD n = 3): 0 n (%) | Nausea TRAE, All (40 mg QD n = 3): 0 n (%) | Nausea TRAE, Gr≥3 (40 mg QD n = 3): 0 n (%) | Neutrophil count decreased TRAE, All (40 mg QD n = 3): 0 n (%) | Neutrophil count decreased TRAE, Gr≥3 (40 mg QD n = 3): 0 n (%) | Platelet count decreased TRAE, All (40 mg QD n = 3): 0 n (%) | Platelet count decreased TRAE, Gr≥3 (40 mg QD n = 3): 0 n (%) | SAEs, events (40 mg QD n = 3): 0 n ev | SAEs, patients (40 mg QD n = 3): 0 n (%) | TEAE Grade ≥3, events (40 mg QD n = 3): 0 n ev | TEAE Grade ≥3, patients (40 mg QD n = 3): 0 n (%) | TEAEs leading to death, events (40 mg QD n = 3): 0 n ev | TEAEs leading to death, patients (40 mg QD n = 3): 0 n (%) | TEAEs leading to dose discontinuation, events (40 mg QD n = 3): 0 n ev | TEAEs leading to dose discontinuation, patients (40 mg QD n = 3): 0 n (%) | TEAEs leading to dose interruption, events (40 mg QD n = 3): 0 n ev | TEAEs leading to dose interruption, patients (40 mg QD n = 3): 0 n (%) | TEAEs leading to dose reduction, events (40 mg QD n = 3): 0 n ev | TEAEs leading to dose reduction, patients (40 mg QD n = 3): 0 n (%)
